Measurements taken from PMC3849192, “A Simple Method for Assessing Free Brain/Free Plasma Ratios Using an In Vitro Model of the Blood Brain Barrier” (PLoS ONE, 2013).
Like-named read-outs stand apart in the source and are kept apart here.

Key:
[1] = In vivo brain exposure (Cu,br/Cu,pl) under steady-state like conditions after intravenous administration; conditions: rat, i.v. bolus plus infusion; for In vivo Cu,br/Cu,pl (homog.) Mean steady-state: Cbr/Cpl x fubr/fupl with fu,br from brain homogenate; for In vivo Cu,br/Cu,pl (slice) Mean steady-state: Cbr/Cpl x fubr/fupl with fu,br from brain slice
Method: Rat plasma was obtained from Sprague-Dawley rats in-house. Plasma from three individuals was pooled and mixed with up to 4 compounds with a concentration of 10 µM each (in 0.1% DMSO). A 48-well dialysis apparatus (AstraZeneca, Mölndal) was used to determine the plasma free fraction. The dialysis membrane (AstraZeneca, Mölndal) was conditioned in Milli/Q water before use. […] The samples were incubated on an orbital shaker (4 mm in diameter and 100 rpm) at 37 °C for 18 hrs. […] After plasma protein precipitation by the addition of 150 µl of acetonitrile to each plasma sample in order to precipitate plasma proteins. The plates were centrifuged and the supernatant analyzed by LC-MS/MS. The fu in plasma was calculated from the ratio of the MS-area of the compound in the buffer to the MS-area of the compound in the plasma.
The CNS exposure of 92 compounds (i.e 30 drugs and 62 proprietary compounds) was assessed under steady-state like conditions after intravenous administration. The time to approach steady-state (taken as at least 3.5 half-lives) was determined from prior studies of the pharmacokinetics of individual compounds after intravenous administration. The rats were put in restraint cages and cannulated via the tail vein. On the day of the experiment, the rats received a bolus injection followed by infusion. The infusion rate and infusion time were determined separately for each compound. The test formulation was administered using an infusion pump (CMA/100 or Univentor 400 microinjection pump).
Blood samples (400 µL) were collected by rapidly anaesthetizing the rats and keeping them under anesthesia with isofluran. Blood was collected either through heart puncture, from the tail vein or the orbital venous plexus and put into EDTA tubes, which were immediately placed on ice and centrifuged within 30 min at 4°C for 5 min at 2000 g to obtain plasma. The plasma was transferred by glass or plastic pipettes to 1.5 ml MTP system topaz vials and immediately frozen to −70°C or lower and stored at −20°C until assayed.
After blood collection, the whole brain was rapidly removed from the animal skull and weighed after which it was frozen and stored at −20°C. Before analysis with LC-MS/MS, the brain samples were sonicated (SONICS Vibracell VCX 130) in Ringer solution (2-fold the brain weight; e.g. 1 gram brain plus 2 mL Ringer).
The unbound brain exposure was assessed as Cu,br/Cu,pl, which is the free brain-free plasma concentration ratio. The Cu,br/Cu,pl ratios were obtained from total brain plasma ratios (Ctot,br/Ctot,pl) by using in vitro determined fu,br and fu,pl values according to: [drawing 4]
Brain concentrations were corrected for residual blood volume using 13 µl/g based on the vascular space of the marker [14C]-sucrose.

[2] = system: in vitro BBB model (co-culture of bovine brain capillary endothelial cells and rat glial cells); assay: In vitro BBB co-culture model, Cu,br/Cu,pl ratio; conditions: for In vitro Cu,br/Cu,pl Mean 1 h: 2 µM in luminal compartment, abluminal/luminal concentration at 1 h; for In vitro Cu,br/Cu,pl Mean steady-state: steady-state ratio computed from 1 h data with the blue-norna steady-state calculator
Method: Figure 1 Schematic diagram of the experimental protocol. After 12 days of coculture in cell culture medium, both compartments of the in vitro BBB model consisting of a coculture of brain capillary endothlial cells and rat primary glial cells were filled with Hepes-buffered Ringer’s solution and the compounds dissolved at 2 µM were added in the luminal compartment (i.e donor). The presence of glial cells in the abluminal compartment was used to reproduce the non specific binding to brain tisssue within the brain prenchyma in vivo. After 1 hour, aliquots were taken from both compartments. In vitro Cu,br/Cu,pl at 1 h were calculated by dividing the concentration in the abluminal compartment (∼Cu,br) by the concentration in the luminal compartment (∼Cu,pl) at 1 h. The experimental data at 1 h were computed using the blue-norna steady-state calculator to generate the in vitro steady-state Cu,br/Cu,pl.
One hour after the addition of compounds dissolved at 2 µM in the luminal (i.e upper) compartment, aliquots were taken from both compartments previously filled with Hepes-buffered Ringer’s solution at the beginning of the experiment. […] The concentrations in both compartments of the in vitro assay after 1 h were computed using […] blue-norna.com to generate the in vitro steady-state Cu,br/Cu,pl.
The method of Dehouck et al. was used with minor modifications (Fig. 1). Bovine brain endothelial cells isolated from capillary fragments were cocultured with primary mixed glial cells from newborn Sprague–Dawley rats. The glial cells were isolated according to the method of Booher and Sensenbrenner and cultured for 3 weeks, plated on the bottom of cell culture clusters containing six wells each. The endothelial cells were seeded onto collagen-coated polycarbonate cell culture inserts (4.7 cm^2) (Corning Incorp. NY, USA), which were placed in the wells containing glial cells. The medium used for the coculture was Dulbecco’s modified Eagle’s medium supplemented with 10% calf serum, 10% horse serum, 2 mmol/L glutamine, 50 mg/L gentamicin and 1 µg/L basic fibroblast growth factor (Sigma). The medium was changed every second day. Experiments were usually initiated after 12 days of co-culture.
To monitor the integrity of the endothelial cell monolayer, the marker molecule [^14C] sucrose was added to the solution at a concentration of 0.05 µCi/ml. At the start of the transport experiments, buffered Ringer’s solution (pH = 7.4) was added to wells with glial cells. Inserts with brain endothelial cells were placed in these wells and drug solutions at 2 µM were added to the donor compartment. The plates were incubated for 1 h in a polymix shaker at 37°C with a low shaking velocity. Aliquots were taken from the donor compartment in the beginning and at the end of the experiments. The receiver compartments were sampled at the end of the experiments.
The amount of radiotracer in the abluminal compartment was measured in a liquid scintillation analyser (Packard Instrument Company, Meriden, USA). […] The concentrations of the test compound in all samples were analysed by MS/MS.
The mean free brain/plasma ratios were calculated from three individual experiments. One hour ratios were calculated by dividing the drug concentration in the receiver compartment by the free drug concentration in the donor compartment after 1 h. The experimental data at one hour (i.e concentration in both compartment at the beginning of the experiment and after 1 h) were computed using the blue-norna® steady-state calculator (www.blue-norna.com) to predict the in vivo steady-state Cu,br/Cu,pl ratios. For further details on this calculation method see file S1.
The in vivo steady-state Cu,br/Cu,pl were predicted from the in vitro experimental data collected after one hour according to the following equation: […]
Cdonor, t and Creceiver, t are the concentration of drug in the donor and receiver chambers at time t.

[3] = Fraction unbound brain (fu,br), brain slice method
Method: Rats (male Sprague-Dawley) were decapitated under isoflurane anesthesia and the brains were removed carefully and immersed in ice-cold oxygenated physiological buffer at pH7.4. A 6 mm coronal section was cut with a razor and mounted with cyanoacrylate glue onto the tray of the microslicer (DTK-Zero 1 Microslicer, Dosak) after which six to eight 300 µm coronal slices from striatal areas were prepared. […] The compounds were dissolved at 1 µM in the buffer and the solution was incubated with the slice for 5 h.
After 5 h, the brain slices were weighed and homogenized in 9 volumes (w/v) of ECF buffer with a sonicator (SONICS VCX 500 and VCX 130). The slice homogenates in ECF buffer were stored at −20°C prior to analysis. The concentrations of the test compound in the brain slice homogenate and in the ECF buffer was determined by LC-MS/MS.
The unbound volume of distribution Vu,brain, or free fraction fu,brain was calculated according to the following equations: [drawing 1] [drawing 2] where Cslice, CECF and V0 are amount of drug in the slice, the drug concentration in the ECF (representing the drug concentration in the brain ECF, i.e. the free concentration), and the water adhesion of the brain slice. V0 has been estimated using ^14C -inulin in a separate experiment in which brain slices were incubated for 1, 2, and 4 min. V0 was obtained from brain slice uptake – inulin time profile (apparent zero-time intercept).

[4] = Fraction unbound brain (fu,br), brain homogenate equilibrium dialysis
Method: The degree of brain binding was assessed by equilibrium dialysis. Brain homogenate (10%) was spiked with test compound at 1 µM in triplicate. […] The plate was then placed in a shaker/incubator to equilibrate for 18 hrs at 37°C. […] After the addition of 50 µl of buffer to the brain homogenate samples, 150 µl of acetonitrile was added to each sample. Finally, 50 µl of water was added to all buffer and brain homogenate samples. The plates were centrifuged and the supernatant analyzed by LC-MS/MS.

SMILES | In vivo Cu,br/Cu,pl (homog.) Mean steady-state [1] | In vivo Cu,br/Cu,pl (slice) Mean steady-state [1] | In vitro Cu,br/Cu,pl Mean 1 h [2] | In vitro Cu,br/Cu,pl Mean steady-state [2] | fubrain (slice) Mean ([3]; rat brain slices 300 µm, 1 µM, 5 h incubation) | fubrain (homog.) Mean ([4]; brain homogenate (10%), 1 µM, equilibrium dialysis 18 hrs at 37°C) | fubrain (slice) Mean [3] | fubrain (homog.) Mean [4]
CC(NC(C)(C)C)C(=O)c1cccc(Cl)c1 (stereo not drawn) [Buproprion] | 1.07 | 1.00 | 0.24 | 0.51 | 0.1600 | 0.1710 | – | –
Fc1ccc([C@@H]2CCNC[C@H]2COc2ccc3c(c2)OCO3)cc1 [Paroxetin] | 0.86 | 0.53 | 0.08 | 0.79 | – | – | 0.0024 | 0.0039
